Measured values reported in article PMC5577653, “Lactoferricin Peptides Increase Macrophages' Capacity To Kill Mycobacterium avium” (mSphere, 2017).
Structures can show the parent of a compound that is named as a salt. Square brackets hold non-standard residues; d marks the D form. Ends that are not written are not given here. Peptide text beside a SMILES is read from it.

Tests used:
[1] = test system: M. avium-infected macrophages; settings: M. avium 2447 SmT-infected BMM; 4 to 120 h; data not shown
in vitro = settings: cell culture medium (supplemented DMEM)
Experimental: (§1) After 0, 0.5, 2, 4, 8, 24, 48, 72, and 96 h of incubation, a 40-µl aliquot was immediately injected for RP-HPLC analysis using an elution gradient of 0 to 100% acetonitrile in 0.05% aqueous trifluoroacetic acid (TFA) for 30 min at a flow rate of 1 ml/min.
(§2) At the end of 0, 0.5, 2, 4, 8, 24, 48, 72, and 96 h, an aliquot was taken from each mixture and analyzed by high-performance liquid chromatography (HPLC). The HPLC (Hitachi Elite Autosampler L-2200, pump L-2130, diode array detector L-2455, and column oven L-2300) was performed with a 150-mm-diameter C18 reverse-phase column (Merck). Each analysis involved an injection volume of 40 µl and elution with 0 to 100% acetonitrile in 0.05% aqueous trifluoroacetic acid (TFA) at a flow rate of 1 ml/min; the detection wavelength was set to 220 nm. The chromatograms were analyzed with EZChrom Elite software, and the peaks were integrated to extract the area.

M. avium 2447 SmT = experiment: Intramacrophagic M. avium growth, CFU assay in BALB/c BMM; type: cell-based, Mycobacterium avium; settings: peptides 40 µM, ethambutol 7.2 µM, each alone, 5 days
Experimental: Given that the peptides at up to 40 µM were not toxic to macrophages, we evaluated their effect on M. avium growing inside these cells. Bone marrow-derived macrophages were obtained from BALB/c mice and infected with M. avium 2447 smooth transparent variant (SmT). The different peptides were added at 40 µM, and ethambutol was added at 7.2 µM. After 5 days in culture, the number of intracellular bacteria per culture well was quantified in a CFU assay (Fig. 1D).
BMM at day 10 of culture were infected with 10^6 CFU of M. avium 2447 SmT for 4 h at 37°C in a 7% CO2 atmosphere. After incubation, cells were washed several times to remove noninternalized bacteria and reincubated with new medium with or without 40 µM peptide (76.9 µg/ml LFcin17–30 and D-LFcin17–30, 73.6 µg/ml LFcin17–30 all R, 80.3 µg/ml LFcin17–30 all R), alone or in combination with the antibiotic ethambutol (2 µg/ml or 7.2 µM ethambutol dihydrochloride; Sigma-Aldrich, St. Louis, MO, USA). Each condition was tested in triplicate. After 5 days in culture, the intracellular growth of M. avium 2447 SmT was evaluated by determining the number of CFU, as described previously ([75]).

M. avium = settings: broth culture; cited from earlier work
Text: In contrast, we now verify that only D-LFcin17–30 induces a significant decrease in mycobacterial growth inside macrophages. However, all peptides were effective when combined with the antibiotic ethambutol. The combination of antimicrobial peptides with conventional antibiotics is of great potential interest, as it might reduce the dosages of each ...

[2] = 40 µM peptide in supplemented DMEM cell culture medium, 37°C, up to 96 h; RP-HPLC C18, UV 220 nm, peak area relative to time zero
Experimental: as §1, §2

Row | Molecule | levels of apoptosis or necrosis [1] | activity against M. avium in axenic cultures (M. avium) | further results
1 | CSCC[C@@H](NC(=O)[C@@H](CCCNC(=N)N)NC(=O)[C@@H](Cc1c[nH]c2ccccc12)NC(=O)[C@@H](CCC(N)=O)NC(=O)[C@@H](Cc1c[nH]c2ccccc12)NC(=O)[C@@H](CCCNC(=N)N)NC(=O)[C@@H](CCCNC(=N)N)NC(=O)[C@@H](CS)NC(=O)[C@@H](CCCCN)NC(=O)[C@H](N)Cc1ccccc1)C(=O)N[C@H](CCCCN)C(=O)N[C@H](CCCCN)C(=O)N[C@H](CC(C)C)C(=O)NCC(=O)O [D-LFcin17–30] (H-[dF][dK][dC][dR][dR][dW][dQ][dW][dR][dM][dK][dK][dL]G-OH) | no significant changes | – | metabolised at 96 h, 40 µM (in vitro): ≤ 30%
2 | CC[C@@H](CO)NCCN[C@@H](CC)CO [ethambutol, ethambutol dihydrochloride] | – | – | inhibition of intramacrophagic M. avium growth, compound alone (M. avium 2447 SmT): None of the other peptides or ethambutol alone significantly inhibited M. avium growth
3 | FKCKKWQWKMKKLG [LFcin17–30 all K, LFcin17–30 variant with all arginines replaced with lysines] | – | all active | –
4 | FKCRRWQWRMKKLG [LFcin17–30] | no significant changes | – | degradation of peptide after 96 h of incubation [2]: completely degraded; metabolised at 24 h, 40 µM (in vitro): 50%
5 | FRCRRWQWRMRRLG [LFcin17–30 all R, LFcin17–30 variant with all lysines replaced with arginines] | – | all active | –
